Measured values published in US7749985B2, “Acyloxyalkyl carbamate prodrugs, methods of synthesis and use” (XenoPort, Inc., priority 2006, dated 2010).

Columns and labels:
[1] = animal models (Merino et al., Biopharm. Drug. Disp. 1989); cited from earlier work
[2] = pH-Dependent Stability of prodrugs in aqueous buffers; type: physicochemical; details: pH 2 to pH 8, 37° C.
Method: (§1) The stabilities of prodrugs were evaluated in one or more in vitro systems using a variety of tissue preparations following methods known in the art. The chemical stability of prodrugs in aqueous buffers at a pH of 2.0, 7.4, and 8.0 were also measured. Tissues were obtained from commercial sources (e.g., Pel-Freez Biologicals, Rogers, Ark., or GenTest Corporation, Woburn, Mass.). Experimental conditions used for the in vitro studies are described in Table 1. Each preparation was incubated with test compound at 37° C. for one hour. Aliquots (50 μL) were removed at 0, 30, and 60 min and quenched with 0.1% trifluoroacetic acid in acetonitrile. Samples were then centrifuged and analyzed by LC/MS/MS. Stability of prodrugs towards specific enzymes (e.g., peptidases, etc.) was also assessed in vitro by incubation with the purified enzyme.
pH-Dependent Stability: The long-term pH-dependent stability of tranexamic acid prodrug at 37° C. was measured by LC/MS/MS at five different representative pH values from pH 2.0 to pH 8.0 was determined. The test concentration was 5 μM. The amount of remaining prodrug and the amount of tranexamic acid released from the prodrug was determined at 0 hour and after 24 hours.

[3] = Enzymatic cleavage of prodrugs in vitro (tissue preparations of Table 1); type: in vitro ADME; details: in the presence of the tissue preparations, 37° C.
Method: as §1
Pancreatin Stability: Stability studies were conducted by incubating prodrug (5 μM) with 1% (w/v) pancreatin (Sigma, P-1625, from porcine pancreas) in 0.025 M Tris buffer containing 0.5 M NaCl (pH 7.5) at 37° C. for 60 min. The reaction was stopped by addition of 2 volumes of methanol. After centrifugation at 14,000 rpm for 10 min, the supernatant was removed and analyzed by LC/MS/MS.
Caco-2 Homogenate S9 Stability: Caco-2 cells were grown for 21 days prior to harvesting. Culture medium was removed and cell monolayers were rinsed and scraped off into ice-cold 10 mM sodium phosphate/0.15 M potassium chloride, pH 7.4. Cells were lysed by sonication at 4° C. using a probe sonicator. Lysed cells were then transferred into 1.5 mL centrifuge vials and centrifuged at 9,000 g for 20 min at 4° C. The resulting supernatant (Caco-2 cell homogenate S9 fraction) was aliquoted into 0.5 mL vials and stored at −80° C. until used.
For stability studies, prodrug (5 μM) was incubated in Caco-2 homogenate S9 fraction (0.5 mg protein per mL) for 60 min at 37° C. Concentrations of intact prodrug and released tranexamic acid were determined at zero time and 60 min using LC/MS/MS.

SMILES | absorption following administration into the colon [1] | stability from pH 2 to pH 8 [2] | hydrolysis to release the corresponding 3-aminopropylphosphinic acid analog [3]
NCC(CC(=O)O)c1ccc(Cl)cc1 (racemic) [Baclofen, (±)-4-Amino-3-(4-chlorophenyl)butanoic acid] | poorly absorbed |  | 
CCCCP(=O)(O)CCCNC(=O)OC(OC(=O)C(C)C)C(C)C (centres unmarked) [39/40, 3-{[1-isobutanoyloxyisobutoxy]carbonylamino}propyl(n-butyl)phosphinic acid] |  | good stability | hydrolyzed to release the corresponding 3-aminopropylphosphinic acid analogs
CCCCP(=O)(O)CCCNC(=O)OC(C)OC(=O)C(C)C (centres unmarked) [Compound 31, 3-{[1-Isobutanoyloxyethoxy]carbonylamino}propyl(n-butyl)phosphinic Acid] |  | good stability | hydrolyzed to release the corresponding 3-aminopropylphosphinic acid analogs
CCCCP(=O)(O)CCCNC(=O)OCOC(=O)C(C)C [Compound 35, 3-{[Isobutanoyloxymethoxy]carbonylamino}propyl(n-butyl)phosphinic Acid] |  | good stability | hydrolyzed to release the corresponding 3-aminopropylphosphinic acid analogs
CCCCP(=O)(O)CCCNC(=O)OC(C)OC(=O)c1ccccc1 (centres unmarked) [Compound 211, 3-{[1-Benzoyloxyethoxy]carbonylamino}propyl(n-butyl)phosphinic Acid] |  | good stability | hydrolyzed to release the corresponding 3-aminopropylphosphinic acid analogs
CCCCP(=O)(O)CCCNC(=O)OCOC(=O)c1ccccc1 [Compound 212, 3-{[1-Benzoyloxymethoxy]carbonylamino}propyl(n-butyl)phosphinic Acid] |  | good stability | hydrolyzed to release the corresponding 3-aminopropylphosphinic acid analogs
